The subject of one data set is TIA mice. Kind of data set: TIA mouse model of primary sclerosing cholangitis, liver histology after remogliflozin etabonate-formulated diet. The class given is in vivo. An excerpt:
The following Examples describe the utilization of a murine model of […] (“PSC”) to assess the effectiveness of a treatment regimen based on the oral administration of remogliflozin etabonate. The murine PSC model is based on mice that are deficient for the expression of tumor necrosis factor alpha (“TNFα”), interleukin 10 (“IL-10”), and activation-induced cytidine deaminase (“AICDA”). As the mice are deficient in TNF, IL-10, and AICDA, they are referred to, herein, as “TIA” mice.
Moreover, as AICDA is required for immunoglobulin (“Ig”) class switching, TIA mice lack IgG and IgA, a phenotype analogous to humans with hyper-IgM syndrome. Therefore, with the combination of AICDA deficiency with the risk factors associated with TNFα and IL-10 deficiencies, TIA mice also develop liver and biliary inflammation reminiscent of PSC symptoms in humans. Accordingly, the TIA model is useful for investigating mechanisms that act early in PSC pathogenesis, as well as treatments that can prevent progression to PSC.
Example 1. Orally-administered remogliflozin etabonate reduces inflammatory cell infiltration, bile ductular proliferation, and interface hepatitis in TIA mice. TIA mice were created by first breeding TNFα knock out (“KO”) C57BL/6 mice, (strain B6.129S-Tnf^tm1Gkl/J, stock #005540, Jackson Laboratories, Bar Harbor, Me.) with IL-10 KO mice (strain B10.129P2(B6)-IL10^tm1Cgn/J, Stock No. 002251, Jackson Laboratories) to produce a population of mice that were deficient in TNFα and IL-10. Because mice with a TNFα−/− and IL10−/− genotype spontaneously develop inflammatory bowel disease (“IBD”) (Hale 2012), a condition associated with poor breeding success (Nagy 2016), the mice needed for further breeding to generate an AICDA population, were generated by breeding offspring with a TNFα and IL10+/− genotype with AICDA−/− mice, which were obtained from Dr. Tasuku Honjo (Muramatsu 2000)), to produce a population of TNFα−/−, IL10−/−, and AICDA+/−(“TI-hetA”) males and females. In turn, TI-hetA pairs were bred to generate populations that were 25% TIA mice, and 50% non-colitis-susceptible TI-hetA littermates that could be used as control populations. All populations were exposed to the same environment from birth. The mice were housed in polycarbonate micro-isolator cages, in individually ventilated racks, under barrier conditions that excluded all known pathogens, including Helicobacter pylori and Norovirus. Mice had ad libitum access to water, and to a standard diet (PicoLab Mouse Diet 20/5058, LabDiet, St. Louis, Mo., USA).
At four (4) weeks of age, TIA (40) and TI-hetA (22) mice were randomized into experimental groups that received either a standard diet (20 TIA and 12 het), or a standard diet formulated 0.03% remogliflozin etabonate (20 TIA and 10 het) (Avolynt Inc., USA). The mice were maintained on this diet for seven (7) weeks. Body weights were obtained three (3) times, weekly, to assess the general health of mice, and to track the development of inflammatory bowel disease (IBD). Glycosuria in the experimental groups was assessed by applying freshly voided urine directly to the glucose test patch on an Accutest® URS-10 urinary reagent test strips (Jant Pharmaceutical Corp., Encino, Calif., USA). Mice were humanely euthanized before reaching the experimental endpoint, of eleven (11) weeks of age, if they lost >15% body weight, or developed rectal prolapse.
To characterize biliary lesions in TIA mice at the end of the 7 week treatment period, liver tissue was obtained from the remogliflozin-treated, and untreated groups, for histologic examination. The excised liver tissue was fixed in Carnoy's fixative solution, and processed into paraffin blocks. The paraffin blocks were sectioned, and stained with Hematoxylin and eosin (H&E) for pathologic analysis. The H&E-stained sections were scored by an American Board of Pathology-certified pathologist. […]

Data set [1] is described as follows: Plasma remogliflozin after oral compressed IR tablet of remogliflozin etabonate. The settings on record: 350 mg remogliflozin etabonate, after 3 hrs. The class given is in vivo. The source says:
Oral dosage forms according to the invention are typically tablets or capsules. Tablets can be obtained by direct compression of the mixed components of a dosage form, including an effective dosage amount of remogliflozin etabonate, and selected excipients, like cellulose derivatives, metacrylates, chitosan, carboxymethylstarch (CMS), or mixtures thereof. For example, a compressed tablet according to the invention, can be prepared by granulating remogliflozin etabonate, microcrystalline cellulose and croscarmellose sodium with a water and povidone solution. The resulting granules are dried, milled, and then blended with mannitol, microcrystalline cellulose, and croscarmellose. The blend is lubricated with magnesium stearate and compressed. […] Indeed, Tmax for an IR remogliflozin etabonate oral dosage form according to the invention occurs at 1 hour, or less, following ingestion of the dosage form by a subject.

Setting [2] is: TIA mice, 0.03% in diet for 7 weeks, vs untreated TIA mice, 11 weeks.

“Also recorded” adds a separate entry of the source.

Consider `CCOC(=O)OC[C@H]1O[C@@H](Oc2nn(C(C)C)c(C)c2Cc2ccc(OC(C)C)cc2)[C@H](O)[C@@H](O)[C@@H]1O` [remogliflozin etabonate, 5-methyl-4-[4-(1-methylethoxy)benzyl]-1-(1-methylethyl)-1H-pyrazol-3-yl 6-O-(ethoxycarbonyl)-β-D-glucopyranoside], for which, in the data set with TIA mice (setting [2]), the “inflammation at the interface between the hepatic parenchyma and the portal tracts (interface hepatitis)” value was “reduces; also recorded: less inflammation at the interface between the hepatic parenchyma and the portal tracts”; the “proliferation of bile ductules (bile ductular proliferation)” value is “reduces; also recorded: less proliferation of bile ductiles”. Besides, the “proliferation of bile ductules (bile ductular proliferation)” value in the data set with TIA mice (TIA mice, 0.03% in diet for 7 weeks, vs untreated TIA mice, 11 weeks, listed as Remo) is “decrease in proliferation of bile ductules”. The “development and progression of liver and biliary disease” value in the data set on TIA mice (TIA mice, 0.03% remogliflozin etabonate in diet for 7 weeks from 4 weeks of age, vs standard diet, H&E liver sections at 11 weeks) is “markedly less development and progression of liver and biliary disease”. Further, in the data set on TIA mice (TIA mice, 7-week study, euthanasia on >15% body weight loss or rectal prolapse), the “number of TIA mice that required early euthanasia, Remo group versus control group” value was “no statistical difference”. In addition, in the data set on TIA mice (TIA mice, orally administered in diet), the inflammatory cell infiltration entry is reported as “reduces”. For the same molecule, the “periportal and biliary inflammation” value with TIA mice (TIA mouse at 11 weeks, 0.03% Remo in chow from 4 weeks of age, H&E liver section) was “decrease in periportal and biliary inflammation”. Further, in data set [1], the “remogliflozin plasma concentration after clearance” value was determined as 40 ng/mL.

The values are drawn from patent US20210322324A1, “METHOD FOR TREATING PRIMARY SCLEROSING CHOLANGITIS” (AVOLYNT, priority 2018, published 2021).
